Reference: the NIST ThermoML archive (doi:10.1021/je900124n)
“And” between values parts separate entries of the source, which are not always exact repeats. Equal entries are not always repeated.

Conditions: Fluid (supercritical or subcritical phases), Buoyancy - hydrostatic balance with magnetic suspension - two sinkers

CCC [propane]
Conditions	mass density
369.83 K, 4284.6 kPa	281.214 kg/m3 and 281.229 kg/m3 and 281.215 kg/m3
369.83 K, 4284.7 kPa	281.219 kg/m3 and 281.22 kg/m3
369.83 K, 4985.9 kPa	337.354 kg/m3 and 337.357 kg/m3
369.83 K, 4986 kPa	337.358 kg/m3 and 337.357 kg/m3
369.83 K, 4986.1 kPa	337.356 kg/m3 and 337.357 kg/m3
369.83 K, 8381.5 kPa	391.64 kg/m3
369.83 K, 8382 kPa	391.644 kg/m3 and 391.642 kg/m3 and 391.641 kg/m3
369.83 K, 8382.2 kPa	391.644 kg/m3
369.83 K, 8382.4 kPa	391.643 kg/m3
369.83 K, 8382.6 kPa	391.644 kg/m3
369.85 K, 311.85 kPa	4.5865 kg/m3 and 4.5866 kg/m3
369.85 K, 311.86 kPa	4.5867 kg/m3
369.85 K, 554.46 kPa	8.3301 kg/m3 and 8.3303 kg/m3
369.85 K, 927.78 kPa	14.4328 kg/m3 and 14.4326 kg/m3
369.85 K, 927.79 kPa	14.4329 kg/m3
369.85 K, 1387.4 kPa	22.6395 kg/m3 and 22.6384 kg/m3 and 22.6393 kg/m3
369.85 K, 1387.5 kPa	22.64 kg/m3 and 22.6401 kg/m3
369.85 K, 2120.4 kPa	37.8404 kg/m3 [middle of 5 runs]
369.85 K, 2871.7 kPa	57.8231 kg/m3
369.85 K, 2871.8 kPa	57.8298 kg/m3 and 57.8251 kg/m3
369.85 K, 3827.6 kPa	100.815 kg/m3 and 100.816 kg/m3
369.85 K, 3827.7 kPa	100.817 kg/m3
369.85 K, 4188.1 kPa	146.906 kg/m3
369.85 K, 4188.2 kPa	146.91 kg/m3
369.85 K, 4188.3 kPa	146.915 kg/m3 and 146.912 kg/m3
369.85 K, 4188.4 kPa	146.917 kg/m3
369.85 K, 4241.5 kPa	177.435 kg/m3
369.85 K, 4241.8 kPa	177.526 kg/m3 and 177.58 kg/m3 and 177.506 kg/m3
369.85 K, 4241.9 kPa	177.65 kg/m3
369.85 K, 4248.2 kPa	218.49 kg/m3 and 218.749 kg/m3 and 220.705 kg/m3
369.85 K, 4248.3 kPa	224.686 kg/m3 and 220.268 kg/m3
369.85 K, 4248.4 kPa	235.513 kg/m3 and 235.434 kg/m3
369.85 K, 4248.6 kPa	231.541 kg/m3 and 236.898 kg/m3
369.85 K, 4258.6 kPa	265.216 kg/m3 and 265.238 kg/m3
369.85 K, 4258.7 kPa	265.211 kg/m3
369.85 K, 4372.9 kPa	299.086 kg/m3
369.85 K, 4373 kPa	299.075 kg/m3
369.85 K, 4373.1 kPa	299.089 kg/m3
369.85 K, 4373.2 kPa	299.082 kg/m3
369.85 K, 5012.2 kPa	338.098 kg/m3
369.85 K, 5012.3 kPa	338.097 kg/m3
369.85 K, 5012.5 kPa	338.099 kg/m3
369.85 K, 5012.6 kPa	338.102 kg/m3
369.85 K, 5520.1 kPa	352.211 kg/m3
369.85 K, 5520.4 kPa	352.212 kg/m3
369.86 K, 554.46 kPa	8.3303 kg/m3 and 8.3302 kg/m3
369.86 K, 927.79 kPa	14.4327 kg/m3 and 14.4326 kg/m3
369.86 K, 4248.7 kPa	234.526 kg/m3
369.86 K, 4258.8 kPa	265.251 kg/m3 and 265.229 kg/m3
369.86 K, 5520.6 kPa	352.209 kg/m3 and 352.21 kg/m3
369.93 K, 4252.7 kPa	197.999 kg/m3 and 197.778 kg/m3
369.93 K, 4252.8 kPa	198.048 kg/m3 [middle of 4 runs]
369.93 K, 4252.9 kPa	197.901 kg/m3
369.93 K, 4253.8 kPa	232.64 kg/m3
369.93 K, 4253.9 kPa	232.539 kg/m3
369.93 K, 4254 kPa	231.862 kg/m3 [middle of 5 runs]
369.93 K, 4255 kPa	244.442 kg/m3 [middle of 4 runs]
369.93 K, 4255.1 kPa	244.551 kg/m3 and 244.556 kg/m3
369.93 K, 4255.2 kPa	244.584 kg/m3 and 244.7 kg/m3
369.95 K, 4248.2 kPa	177.636 kg/m3
369.95 K, 4248.3 kPa	177.67 kg/m3 and 177.631 kg/m3 and 177.707 kg/m3
369.95 K, 4248.4 kPa	177.657 kg/m3
369.95 K, 4255.7 kPa	214.994 kg/m3 and 214.812 kg/m3 and 213.928 kg/m3
369.95 K, 4255.8 kPa	214.794 kg/m3 and 214.471 kg/m3
369.95 K, 4256.2 kPa	231.389 kg/m3
369.95 K, 4256.3 kPa	231.791 kg/m3 and 231.342 kg/m3
369.95 K, 4256.4 kPa	233.445 kg/m3 and 231.817 kg/m3
369.95 K, 4268 kPa	265.209 kg/m3 and 265.217 kg/m3 and 265.193 kg/m3
369.95 K, 4268.2 kPa	265.233 kg/m3
369.96 K, 4268.2 kPa	265.215 kg/m3
370.03 K, 4259.9 kPa	197.023 kg/m3 and 197.111 kg/m3 and 197.064 kg/m3
370.03 K, 4260 kPa	197.186 kg/m3 [middle of 4 runs]
370.03 K, 4260.1 kPa	197.3 kg/m3
370.03 K, 4261.6 kPa	225.827 kg/m3 and 225.421 kg/m3 and 225.472 kg/m3
370.03 K, 4261.7 kPa	225.904 kg/m3 and 225.809 kg/m3 and 225.73 kg/m3
370.03 K, 4261.8 kPa	225.954 kg/m3 and 225.938 kg/m3
370.03 K, 4263.3 kPa	244.173 kg/m3 and 244.096 kg/m3
370.03 K, 4263.4 kPa	244.149 kg/m3 and 244.214 kg/m3
370.03 K, 4263.5 kPa	244.309 kg/m3 and 244.177 kg/m3 and 244.274 kg/m3
370.03 K, 4263.6 kPa	244.294 kg/m3
370.05 K, 4254.8 kPa	177.712 kg/m3 and 177.662 kg/m3
370.05 K, 4254.9 kPa	177.695 kg/m3 and 177.74 kg/m3 and 177.673 kg/m3
370.05 K, 4263.2 kPa	211.406 kg/m3 and 211.212 kg/m3
370.05 K, 4263.4 kPa	211.466 kg/m3 and 212.306 kg/m3 and 211.429 kg/m3
370.05 K, 4264.2 kPa	229.256 kg/m3 and 228.799 kg/m3
370.05 K, 4264.3 kPa	229.262 kg/m3 and 229.062 kg/m3
370.05 K, 4277.5 kPa	265.204 kg/m3 [middle of 4 runs]
370.05 K, 4277.6 kPa	265.242 kg/m3
370.06 K, 4264.4 kPa	229.28 kg/m3
370.32 K, 4281.1 kPa	196.636 kg/m3
370.32 K, 4281.2 kPa	196.743 kg/m3 and 196.797 kg/m3 and 196.727 kg/m3
370.32 K, 4281.3 kPa	196.729 kg/m3
370.33 K, 4212.1 kPa	146.689 kg/m3 and 146.681 kg/m3
370.33 K, 4212.2 kPa	146.684 kg/m3 [middle of 5 runs]
370.33 K, 4281.2 kPa	196.669 kg/m3
370.33 K, 4281.3 kPa	197.033 kg/m3 and 196.772 kg/m3
370.33 K, 4284.6 kPa	220.89 kg/m3
370.33 K, 4284.7 kPa	220.777 kg/m3 and 220.874 kg/m3 and 220.88 kg/m3
370.33 K, 4284.8 kPa	221.028 kg/m3 and 221.044 kg/m3 and 221.077 kg/m3
370.33 K, 4284.9 kPa	221.146 kg/m3
370.33 K, 4288.5 kPa	243.759 kg/m3 and 243.744 kg/m3 and 243.764 kg/m3
370.33 K, 4288.6 kPa	243.866 kg/m3 [middle of 5 runs]
370.35 K, 4214.3 kPa	147.029 kg/m3 [middle of 5 runs]
370.35 K, 4274.3 kPa	177.77 kg/m3 and 177.777 kg/m3
370.35 K, 4274.4 kPa	177.843 kg/m3 and 177.765 kg/m3 and 177.808 kg/m3
370.35 K, 4285.7 kPa	209.496 kg/m3 [middle of 4 runs]
370.35 K, 4285.8 kPa	209.659 kg/m3
370.35 K, 4287.8 kPa	228.296 kg/m3
370.35 K, 4287.9 kPa	227.176 kg/m3 and 227.342 kg/m3
370.35 K, 4288 kPa	227.25 kg/m3
370.35 K, 4305.9 kPa	265.204 kg/m3
370.35 K, 4306 kPa	265.214 kg/m3 and 265.193 kg/m3
370.35 K, 4306.1 kPa	265.222 kg/m3
370.36 K, 4288 kPa	227.268 kg/m3
370.36 K, 4306.1 kPa	265.199 kg/m3
370.82 K, 4238.2 kPa	146.893 kg/m3
